# Patent publication US8501911B2, “Methods of reducing inflammation and mucus hypersecretion” (Biomarck Pharmaceuticals, Ltd, priority 1999, dated 2013)
# Residues, ends and D or L forms follow the SMILES beside them. *: point of attachment. Myristoyl = CCCCCCCCCCCCCC(=O)*
# Key:
# [1] = tested on: PP1; test: Protein phosphatase activity assay in NHBE cells, PP1; format: cell-based, human; conditions: after exposure to 8-Br-cGMP
# Procedure: (§1) To confirm further activation of PP2A by PKG in NHBE cells, cytosolic PP1 and PP2A activities were determined after exposure of the cells to 8-Br-cGMP. […] Accordingly, this PP2A activity appeared critical for mucin secretion to occur; when PKG-induced MARCKS dephosphorylation was blocked by okadaic acid or fostriecin, the secretory response to PKC/PKG activation or UTP stimulation was ameliorated (see Results-I-6-1 and Results-I-6-2, above).
# (§2) Protein Phosphatase Activity Assay—PP1 and PP2A activities were measured using a protein phosphatase assay system (Life Technologies, Inc.) as known in the art with slight modification. Huang et al., Adv. Exp. Med. Biol. 396, 209-215 (1996). Briefly, NHBE cells were treated with 8-Br-cGMP or medium alone for 5 min. Cells were then scraped into a lysis buffer (50 mM Tris-HCl (pH 7.4), 0.1% beta-mecaptoethanol, 0.1 mM EDTA, 1 mM benaamidine, 10 μg/ml pepstatin A, 10 μg/ml leupeptin) and disrupted by sonication for 20 s at 4° C. […] Released ^32Pi was counted by scintillation. The protein concentration of each sample was determined by the Bradford assay. PP2A activity was expressed as the sample total phosphatase activity minus the activity remaining in the presence of 1 nM okadaic acid. PP1 activity was expressed as the difference between the activities remaining in the presence of 1 nM and 1 μM okadaic acid, respectively. […]
# [2] = tested on: PP2A; test: Protein phosphatase activity assay in NHBE cells, PP2A; format: cell-based, human; conditions: 8-Br-cGMP as low as 0.1 μM
# Procedure: as §1, §2
# [3] = tested on: human bronchial epithelial cells; test: Basal (constitutive) mucin secretion by human bronchial epithelial cells; format: cell-based; conditions: peptide 100 μM, one hour incubation, no PMA or 8-Br-cGMP
# Procedure: Mucus secreted from the airway epithelial cells in vitro after stimulation by activators was assessed using an ELISA (antibody capture method) (E. Harlow, D. Lane. “Antibodies: A Laboratory Manual.” New York: Cold Spring Harbor Laboratory Press, 1988), wherein the collected mucus is bound directly to the ELISA plate. Mucus was detected using an antibody raised against monkey airway mucus (Lin et al. Am J Respir Cell Mol Biol 1:41, 1989).
# The MANS peptide (100 μM) was also found to decrease constitutive (basal) mucus secretion by one hour incubation. Cells were treated as described above except that no PMA or 8-Br-cGMP was used. […] Results, designated as Results-M-1B, are presented as follows and show the inhibition of basal mucin secretion by human bronchial epithelial cells exposed to the MANS peptide (SEQ ID NO: 1) or a negative control peptide consisting of the same amino acids as the MANS peptide, but in random order (RNS peptide; random N-terminal sequence (SEQ ID NO: 26):
# The effect of MA-PSD peptide (1, 10 and 100 μM) on basal mucin secretion was also measured. Cells as described above were incubated for one hour with the MA-PSD peptide (no PMA or 8-Br-cGMP).
# [4] = tested on: MARCKS mRNA; test: MARCKS mRNA level in NHBE cells (Northern hybridization); format: cell-based, human; conditions: TNF-α 10 ng/ml 4 h, then PMA 100 nM+8-Br-cGMP 1 μM 15 min
# Procedure: (§3) NHBE cells were treated with the antisense or the control oligonucleotide for 3 days and then stimulated with PMA (100 nM)+8-Br-cGMP (1 μM) for 15 min. Mucin secretion was analyzed by ELISA. Total RNA and protein were isolated from treated cells. MARCKS mRNA was assessed by Northern hybridization, and protein was assessed by Western blot. […] In this regard, MARCKS mRNA as a percent of control is shown in the following results which are designated as Results-I-3A-2:
# (§4) Antisense Oligonucleotides—MARCKS antisense oligonucleotide and its corresponding control oligonucleotide were synthesized at Biognostik GmbH (Gottingen, Germany). […] Cells were then incubated with secretagogues, and mucin secretion was measured by ELISA. […] MARCKS mRNA was assessed by Northern hybridization according to conventional procedures using human MARCKS cDNA as a probe. MARCKS protein level was determined by Western blot using purified anti-MARCKS IgG1 (clone 2F12) as the primary detection antibody.
# (§5) NHBE cells were incubated with 10 ng/ml human recombinant TNF-α or medium alone for 4 hrs, then stimulated with PMA (100 nM)+8-Br-cGMP (1 μM) for 15 min, or UTP (0.1 mM) for 2 hrs. Secreted mucin was collected and measured by ELISA. […] MARCKS mRNA was assessed by Northern hybridization, and protein by the Western Blot technique. […]
# [5] = tested on: MARCKS protein; test: MARCKS protein level in NHBE cells (Western blot); format: cell-based, human; conditions: TNF-α 10 ng/ml 4 h
# Procedure: as §3, §4, §5
compound,measurement,setting,value
Nc1nc2c(nc(Br)n2[C@@H]2O[C@@H]3COP(=O)(O)O[C@H]3[C@H]2O)c(=O)[nH]1 [8-Br-cGMP],PP1 activity,[1],unchanged
same,Increase of PP2A activity,[2],approximately 3 fold
same,PP2A activity,"[2]; 5 min, baseline 0.1",0.3 nmol/mnin/mg proteins
CCCCCCCCCCCCCC(=O)NCC(=O)N[C@@H](C)C(=O)N[C@@H](CCC(N)=O)C(=O)N[C@@H](Cc1ccccc1)C(=O)N[C@@H](CO)C(=O)N[C@@H](CCCCN)C(=O)N[C@H](C(=O)N[C@@H](C)C(=O)N[C@@H](C)C(=O)N[C@@H](CCCCN)C(=O)NCC(=O)N[C@@H](CCC(=O)O)C(=O)N[C@@H](C)C(=O)N[C@@H](C)C(=O)N[C@@H](C)C(=O)N[C@@H](CCC(=O)O)C(=O)N[C@@H](CCCNC(=N)N)C(=O)N1CCC[C@H]1C(=O)NCC(=O)N[C@@H](CCC(=O)O)C(=O)N[C@@H](C)C(=O)N[C@@H](C)C(=O)N[C@H](C(=O)N[C@@H](C)C(=O)O)C(C)C)[C@@H](C)O [MANS peptide] (Myristoyl-GAQFSKTAAKGEAAAERPGEAAVA-OH; C-terminus assumed),Basal mucin secretion level relative to control,[3],28%
"CCCCCCCCCCCCCC(=O)NCC(=O)N[C@H](C(=O)N[C@@H](C)C(=O)N1CCC[C@H]1C(=O)N[C@@H](C)C(=O)N[C@@H](C)C(=O)N[C@@H](CCC(=O)O)C(=O)NCC(=O)N[C@@H](C)C(=O)NCC(=O)N[C@@H](C)C(=O)N[C@@H](CCC(=O)O)C(=O)N[C@H](C(=O)N[C@@H](CCCCN)C(=O)N[C@@H](CCCNC(=N)N)C(=O)N[C@@H](C)C(=O)N[C@@H](CO)C(=O)N[C@@H](C)C(=O)N[C@@H](CCC(=O)O)C(=O)N[C@@H](C)C(=O)N[C@@H](CCCCN)C(=O)N[C@@H](CCC(N)=O)C(=O)N[C@@H](C)C(=O)N[C@@H](Cc1ccccc1)C(=O)O)C(C)C)[C@@H](C)O [RNS peptide, reference compound] (Myristoyl-GTAPAAEGAGAEVKRASAEAKQAF-OH; C-terminus assumed)",Basal mucin secretion level relative to control,[3],90%
TNF-α,MARCKS mRNA level relative to control,[4],115%
same,Increase in MARCKS protein vs medium only (Western blot),[5],three- to four-fold increase
same,MARCKS protein level relative to control,[5]; then PMA 100 nM+8-Br-cGMP 1 μM 15 min,352%
